System: autologous B cells lysed by CTL Clone 3
Experiment: Chromium release assay with QW9-B53 specific CTL clone C3
Format: cell-based, human
Conditions: effector/target 1:1, technical replicate

Question: For QATQEVKNW [QW9_S3T], which “lysis of autologous B cells” value (experiment-1) is on record?
Answer: Its value is 6.79.

Question: What about the “lysis of autologous B cells” value (experiment-2) of the same sequence?
Answer: The value was 6.64.

Question: And the “lysis of autologous B cells” value (experiment-3)?
Answer: Its value is 6.63.

Question: What about the “lysis of autologous B cells” value (experiment-4) of the same sequence?
Answer: Its value is 6.38.

Question: And the “lysis of autologous B cells” value (experiment-5)?
Answer: The value was 6.72.

Question: And the “lysis of autologous B cells” value (experiment-6)?
Answer: Its value is 7.02.

Question: What about the “lysis of autologous B cells” value (experiment-7) of the same sequence?
Answer: The value was 6.68.

Question: What about the “lysis of autologous B cells” value (experiment-8) of the same sequence?
Answer: The value was 6.3.
